# In patent publication US4512980A, “Peptide, process for preparation thereof and use thereof” (priority 1979, dated 1985):
# What was measured:
# Mice (DDY male 5-6 W) = experiment: Blood stream clearance of carbon; assay type: in vivo; details: carbon clearance measured 24 hours later
# Procedure: 1. Carbon suspension. Rotoring drawing ink (170 mg carbon/ml.) was diluted to 1/5 of the original concentration in saline containing 1% gelatin. 2. 0.1% aqueous sodium carbonate solution. Mice (DDY male 5-6 W) were injected via the tail vein with a dose of 0.01 ml/g body weight of carbon. Blood samples were taken by means of a pointed capillary […] calibrated to hold a 50 μl and previously washed in heparin. This was plunged into the retroorbital venous sinus at the nasal angle of the eye. The samples were removed at 3 and 6 min. The blood was immediately discharged into 3.0 ml. of the sodium carbonate solution. This hemolyzed the blood and allowed the quantitation of carbon. The samples were then read in a spectrophotometer at 660 nm, the log concentration being obtained from a previously determined standard curve. The clearance value K may be determined by plotting log carbon concentration against time according to the following relationship; [formula] in which T1 and T2 represent the time in min when the sample were withdrawn and C1 and C2 represent the concentrations of carbon in the blood at the time T1 and T2, respectively. The aqueous solution of the drug as given was administered subcutaneously to mice. Twenty four hours later, blood stream clearance of carbon was measured. K value obtained with treated mice was compared with that of control mice.
# E. coli 22 = experiment: Protective efficacy in experimental infection in mice; assay type: in vivo; details: male ICR mice, E. coli 22 i.p., survival after four days
# Procedure: In determining the protective efficacy against experimental infections in mice, the test compound was dissolved in and diluted with sterile saline to provide prescribed concentrations of drug.
# Male ICR-strain mice, aged 4 weeks were used in groups of ten mice. E. coli 22 was cultivated overnight at 37° C. on trypticase soy agar and then were suspended in a sterile saline to obtain microbial cell concentration of 9.0×10^7 CFU/ml. Mice were inoculated intraperitoneally with 0.2 ml of the suspension. Each of the test drugs was given intraperitoneally in various doses to a group of ten mice 24 hours before challenge.
# Survival percent were found from the number of the surviving animals after four days of injection.
substance,measurement,setting,value
D-Lac-L-Ala-γ-D-Glu(α-OH)-(L)-[D-Lac-L-Ala-γ-D-Glu(α-OH)-(L)-mesoDAP-(D)-Gly]-(D)-mesoDAP-(L)-GlyOH [Example 13 (Step 2)],K treated/K control,Mice (DDY male 5-6 W); dose 1 mg/mouse subcutaneously,0.6
same,K treated/K control,Mice (DDY male 5-6 W); dose 100 mg/mouse subcutaneously,1.6
same,Survival (%),E. coli 22; dose 1 mg/kg intraperitoneally 24 hours before challenge,100%
same,Survival (%),E. coli 22; dose 10 mg/kg intraperitoneally 24 hours before challenge,100%
